Results on 14 molecules are retold here after patent publication US6300501A, “Histidine-(N-benzyl glycinamide) inhibitors of protein farnesyl transferase” (Warner-Lambert Company, priority 1998, dated 2001).

Like-named read-outs stand apart in the source and are kept apart here.

Test [1] deals with T1, SF9 affinity purified rat farnesyl protein transferase (Rattus norvegicus, UniProt Q02293+Q04631).
T1 construct: made in house; host or cells: Sf9 insect cells (baculovirus system inferred from b7)
Briefly: PFT inhibitory activity (radiolabeled farnesyl pyrophosphate, streptavidin bead assay). It is filed as biochemical. The procedure:
The protein:farnesyl transferase (PFT) or farnesyl protein transferase (FPT) inhibitory activity of compounds of the present invention were assayed in HEPES buffer (pH 7.4) containing 5 mM potassium phosphate and 20 μM ZnCl2. The solution also contained 5 mM DTT (dithiothreitol), 5 mM MgCl2, and 0.1% PEG 8000. Assays were performed in 96 well plates (Wallec) and employed solutions composed of varying concentrations of a compound of the present invention in 100% DMSO (dimethylsulfoxide). Upon addition of both substrates, radiolabeled farnesyl pyrophosphate ([1^3 H], specific activity 15-30 Ci/mmol, final concentration 134 nM) and (biotinyl)-Ahe-Thr-Lys-Cys-Val-Ile-Met ([3aS[3a alpha, 4 beta, 6a alpha]-hexahydro-2-oxo-1H-thieno[3,4-d]imidazole-5-pentanoic acid]-[7-aminoheptanoic acid]-Thr-Lys-Cys-Val-Ile-Met) (Ahe is 7-aminoheptanoic acid, Thr is threonine, Lys is lysine, Cys is cysteine, Val is valine, Ile is isoleucine and Met is methionine) (final concentration 0.2 μM), the enzyme reaction was started by addition of SF9 affinity purified rat farnesyl protein transferase. After incubation at 30° C. for 30 minutes, the reaction was terminated by diluting the reaction 2.5-fold with a stop buffer containing 1.5 M magnesium acetate, 0.2 M H3 PO4, 0.5% BSA (bovine serum albumin), and strepavidin beads (Amersham) at a concentration of 1.3 mg/mL. After allowing the plate to settle for 30 minutes at room temperature, radioactivity was quantitated on a microBeta counter (Model 1450, Wallec). The assay was also carried out without 5 mM potassium phosphate.

The test system of test [2] is H61 cells: NIH transformed 3T3 H-ras cells. Put plainly: Clonogenic assay (6 well plates, soft agar). Type of test: cell-based. The following applies: 312 h, colonies counted after Day 13, read-out: Clonogenic Assay IC50. The method, then:
Clonoaenic Assay (6 well lates)
Sometime previous to setting up an actual test:
1. Make up 1.5% Bacto Agar in Milli-Q water and autoclave.
2. Make up 500 mL 2× DMEM-HG without phenol red by combining the following:
1 bottle DMEM base powder (Sigma D-5030)
Adjust pH to 7.1 with HCL; filter sterilize.
1. Set up makeshift water bath (beaker of water with thermometer, on hot plate) in the hood. Keep water temperature between 37° C. to 43° C.
2. […] 1.5% Bacto Agar for approximately 2 minutes on high, or until completely melted. Then let it cool somewhat before using it. (You can keep it from resolidifying by setting the bottle on the hot plate.) […]
3. Bottom Layer (0.6% agar) Top Layer (0.3% agar)
20% calf serum 20% calf serum
40% Bacto Agar (1.5%) 20% Bacto Agar (1.5%)
Depending on the volume of each layer needed, use either 50 mL conical tubes or 200 mL turnip tubes which can be floated in the "water bath".
4. Add 1 mL of bottom layer agar/medium to each well: deliver 1 mL warm agar/medium to a well; then using the tip of the pipet, spread the agar/medium around to completely cover the bottom. Repeat with next well.
5. Allow the plates to set at room temperature for about 5 minutes until the bottom layer solidifies.
6. Label sterile Falcon 2054 (12×75 mm) tubes and add appropriate volume of drug solutions into them.
7. Aliquot 4 AL of DMSO or drug solution per 1 mL of agar/medium to appropriate tubes; then add the agar/medium/cells to each tube. Always add 1 mL more than will actually be needed. Mix up and down in the pipet (gently); then deliver 1 mL to the center of each well. The upper layer is less viscous, so it will generally spread out over the bottom layer unaided. If necessary, rotate the plane of the plate gently to spread the top layer evenly over the bottom layer.
8. Let plates set for 5 or 10 minutes at room temperature to solidify, then put into 5% CO2, 37° C. incubator.
9. On Day 13, add 0.5 mL of INT (tetrazolium 1 mg/mL in Milli-Q H2 O, filter sterilized) and return plates to incubator.

Test [3] relates to ras farnesylation in ras-transformed cells. Put plainly: Gel shift assay. To be noted: ras-transformed cells, 18-hour incubation; read-out: Gel Shift (μM) MED (minimal effective dose to observe inhibition of ras farnesylation). It is filed as cell-based. The procedure: Twenty-four hours after planting 2×10^6 ras-transformed cells per treatment condition, the farnesylation inhibitor is added at varying concentrations. Following an 18-hour incubation period, cells are lysed in phosphate-buffered saline containing 1% Triton X-100, 0.5% sodium deoxycholate, and 0.1% SDS (sodium dodecyl sulfate), pH 7.4 in the presence of several protease inhibitors (PMSF (phenylmethylsulfonylfluoride), antipain, leupeptin, pepstatin A, and aprotinin all at 1 μg/mL). Ras protein is immunoprecipitated from the supernatants by the addition of 3 μg v-H-ras Ab-2 (Y13-259 antibody from Oncogene Science). After overnight immunoprecipitation, 30 μL of a 50% protein G-Sepharose slurry (Pharmacia) is added followed by 45-minute incubation. Pellets are resuspended in 2× tris-glycine loading buffer (Novex) containing 5% β-mercaptoethanol and then denatured by 5 minutes boiling prior to electrophoresis on 14% Tris-glycine SDS gels. Using Western transfer techniques, proteins are transferred to nitrocellulose membranes followed by blocking in blocking buffer. Upon overnight incubation with primary antibody (pan-ras Ab-2 from Oncogene Science), an antimouse HRP (horse radish peroxidase) conjugate secondary antibody (Amersham) is employed for detection of the ras protein. Blots are developed using ECL(enhanced chemiluminescence) techniques (Amersham).

The mark [4] stands for this setting: HEPES buffer pH 7.4, without 5 mM potassium phosphate, read-out: IC50 (μM) Hepes.
Setting [5] is: HEPES buffer pH 7.4 containing 5 mM potassium phosphate, read-out: IC50 (μM) 5 mM K3 PO4 -2.

T1 sequence (Q02293 whole entry, one chain of several): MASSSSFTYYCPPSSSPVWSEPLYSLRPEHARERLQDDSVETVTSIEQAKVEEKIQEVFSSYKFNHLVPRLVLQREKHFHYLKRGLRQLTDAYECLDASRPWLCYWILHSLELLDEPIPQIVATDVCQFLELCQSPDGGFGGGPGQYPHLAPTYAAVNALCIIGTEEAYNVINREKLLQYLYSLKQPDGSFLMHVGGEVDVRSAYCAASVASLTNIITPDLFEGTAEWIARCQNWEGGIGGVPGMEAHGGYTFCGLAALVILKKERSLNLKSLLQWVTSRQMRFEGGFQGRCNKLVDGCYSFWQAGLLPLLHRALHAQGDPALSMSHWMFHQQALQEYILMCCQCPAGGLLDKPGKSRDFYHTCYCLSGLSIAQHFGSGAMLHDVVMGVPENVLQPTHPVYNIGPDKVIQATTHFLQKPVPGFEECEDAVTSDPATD

By IC50 is commonly meant the point on the concentration scale where inhibition reaches its midpoint. For `CC(CNC(=O)CN(Cc1ccc(OCc2ccccc2)cc1)C(=O)[C@H](Cc1c[nH]cn1)NC(=O)NCc1ccccc1)c1ccccc1` (stereo partly drawn) [Example 26, (S)-N-(4-Benzyloxy-benzyl)-2-(3-benzyl-ureido)-3-(1H-imidazole-4-yl)-N-[(2-phenyl-propylcarbamoyl)-methyl]-propionamide], the values for the IC50 in test [1] (setting [4]) and in test [1] (setting [5]) were 0.15 µM and 0.009 µM, respectively.

With `CC(CNC(=O)CN(Cc1ccc(Br)cc1)C(=O)[C@H](Cc1c[nH]cn1)NC(=O)OCc1ccccc1)c1ccccc1` (stereo partly drawn) [Example 29, (S)-[1-{(4-Bromo-benzyl)-[(2-phenyl-propylcarbamoyl)-methyl]-carbamoyl}-2-(1H-imidazole-4-yl)-ethyl]-carbamic Acid Benzyl Ester], the IC50 in test [2] was greater than 1000 nM. Moreover, the minimal effective concentration in test [3] amounted to 0.1 µM.

Turning to `CC(CNC(=O)CN(Cc1cccc2ccccc12)C(=O)[C@H](Cc1c[nH]cn1)NC(=O)OCc1ccccc1)c1ccccc1` (stereo partly drawn) [Example 37, (S)-(2-(1H-Imidazole-4-yl)-1-{naththalen-1-ylmethyl-[(2-phenyl-propylcarbamoyl)-methyl]-carbamoyl}-ethyl)-carbamic Acid Benzyl Ester], the IC50 in test [1] (setting [4]) worked out at 0.92 µM; in test [1] (setting [5]), 0.026 µM. Also, in test [3], the minimal effective concentration is recorded as no less than 0.2 µM.

As for `CC(C)(CNC(=O)CN(Cc1ccccn1)C(=O)[C@H](Cc1c[nH]cn1)NC(=O)OCc1ccccc1)c1ccccc1` [Example 46, (S)-(2-(1H-Imidazole-4-yl)-1-{[(2-methyl-2-phenyl-propylcarbamoyl)-methyl]-pyridin-2-ylmethyl-carbamoyl}-ethyl)-carbamic Acid Benzyl Ester], the IC50 in test [1] (setting [4]) was 1.98 µM; in test [1] (setting [5]) it was 0.034 µM. Moreover, the minimal effective concentration in test [3] is 1 µM.

On to `CC(CNC(=O)CN(Cc1ccc(N(C)C)cc1)C(=O)[C@H](Cc1c[nH]cn1)NC(=O)OCc1ccccc1)c1ccccc1` (stereo partly drawn) [Example 48, (S)-[1-{(4-Dimethylamino-benzyl)-[(2-phenyl-propylcarbamoyl)-methyl]-carbamoyl}-2-(1H-imidazole-4-yl)-ethyl]-carbamic Acid Benzyl Ester], for which the IC50 worked out at 0.5 µM in test [1] (setting [4]) and 0.0029 µM in test [1] (setting [5]). In test [3], the minimal effective concentration was 0.05 µM.

As for `CC(C)(CNC(=O)CN(Cc1ccc(OCc2ccccc2)cc1)C(=O)[C@H](Cc1c[nH]cn1)NC(=O)OCc1ccsc1)c1ccccc1` [Example 54, (S)-[1-{(4-Benzyloxy-benzyl)-[(2-methyl-2-henyl-propylcarbamoyl)-methyl]-carbamoyl}-2-(1H-imidazole-4-yl)-ethyl]-carbamic acid thiophen-3-ylmethyl Ester], the IC50 in test [1] (setting [4]) was determined as 0.2 µM; in test [1] (setting [5]), 0.0012 µM. Moreover, the minimal effective concentration in test [3] was found to be 0.2 µM.

For the molecule `CC(C(=O)NCC(C)(C)c1ccccc1)N(Cc1ccc(Cl)cc1)C(=O)[C@H](Cc1cnc[nH]1)NC(=O)OCc1ccccc1` (stereo partly drawn) [Example 55, (S)-[1-{(4-Chloro-benzyl)-[1-(2-methyl-2-phenyl-propylcarbamoyl)-ethyl]-carbamoyl}-2-(3H-imidazole-4-yl)-ethyl]-carbamic Acid Benzyl Ester], the values for the IC50 in test [1] (setting [4]) and in test [1] (setting [5]) were 0.86 µM and 0.014 µM, respectively. Also, the minimal effective concentration in test [3] is 0.05 µM.

`Cc1ccc(CN(CC(=O)NCC(C)(C)c2ccccc2)C(=O)[C@H](Cc2c[nH]cn2)NC(=O)OCc2ccccc2)cc1` [Example 56, (S)-(2-(1H-Imidazole-4-yl)-1-{(4-methyl-benzyl)-[(2-methyl-2-phenyl-propylcarbamoyl)-methyl]-carbamoyl}-ethyl)-carbamic Acid Benzyl Ester]: the IC50 was determined as 0.32 µM in test [1] (setting [4]) and 0.012 µM in test [1] (setting [5]). Moreover, the minimal effective concentration in test [3] is 0.05 µM.

For `COc1ccccc1CN(CC(=O)NCC(C)(C)c1ccccc1)C(=O)[C@H](Cc1c[nH]cn1)NC(=O)OCc1ccccc1` [Example 57, (S)-(2-(1H-Imidazole-4-yl)-1-{(2-methoxy-benzyl)-[(2-methyl-2-phenyl-propylcarbamoyl)-methyl]-carbamoyl}-ethyl)-carbamic Acid Benzyl Ester], the IC50 is 0.38 µM in test [1] (setting [4]) and 0.0052 µM in test [1] (setting [5]).

As to `CN(Cc1ccccc1)C(=O)N[C@@H](Cc1c[nH]cn1)C(=O)N(CC(=O)NCC(C)(C)c1ccccc1)Cc1ccc(Cl)cc1` [Example 58, (S)-2-(3-Benzyl-3-methyl-ureido)-N-(4-chloro-benzyl)-3-(1H-imidazole-4-yl)-N-[(2-methyl-2-phenyl-propylcarbamoyl)-methyl]-propionamide], the figures for the IC50 in test [1] (setting [4]) and in test [1] (setting [5]) were 0.029 µM and 0.005 µM, respectively. For the same molecule, in test [3], the minimal effective concentration is 0.05 µM.

In the case of `COc1cccc(CN(CC(=O)NCC(C)(C)c2ccccc2)C(=O)[C@H](Cc2c[nH]cn2)NC(=O)OCc2ccccc2)c1` [Example 59, (S)-(2-(1H-Imidazole-4-yl)-1-{(3-methoxy-benzyl)-[(2-methyl-2-phenyl-propylcarbamoyl)-methyl]-carbamoyl}-ethyl)-carbamic Acid Benzyl Ester], the IC50 came to 0.52 µM in test [1] (setting [4]) and 0.004 µM in test [1] (setting [5]). The minimal effective concentration in test [3] worked out at 0.05 µM.

Turning to `CC(C)(CNC(=O)CN(Cc1ccccc1OCc1ccncc1)C(=O)[C@H](Cc1c[nH]cn1)NC(=O)OCc1ccccc1)c1ccccc1` [Example 60, (S)-(2-(1H-Imidazole-4-yl)-1-{[(2-methyl-2-phenyl-propylcarbamoyl)-methyl]-[2-(pyridin-4-ylmethoxy)-benzyl]-carbamoyl}-ethyl)-carbamic Acid Benzyl Ester], the IC50 is 0.14 µM in test [1] (setting [4]) and 0.016 µM in test [1] (setting [5]). In addition, the minimal effective concentration in test [3] stood at 0.05 µM.

Regarding `CC(C)CN(CC(=O)NCC(C)c1ccccc1)C(=O)[C@H](Cc1c[nH]cn1)NC(=O)OCc1ccccc1` (stereo partly drawn) [Example 62, (S)-(2-(1H-Imidazol-4-yl)-1-{isobutyl-[(2-phenyl-propylcarbamoyl)-methyl]-carbamoyl}-ethyl)-carbamic Acid Benzyl Ester], the values for the IC50 in test [1] (setting [4]) and in test [1] (setting [5]) were 2.6 µM and 0.029 µM, respectively.

For the molecule “[1-{Cyclohexylmethyl-[(2-phenyl-propylcarbamoyl)-methyl]-carbamoyl}-2-(3H-imidazole-4-yl)-ethyl]-carbamic Acid Benzyl Ester [Example 61]”, the figures for the IC50 in test [1] (setting [4]) and in test [1] (setting [5]) were 0.66 µM and 0.018 µM, respectively. In test [3], the minimal effective concentration is on record as 0.01 µM.
